ChEMBL document CHEMBL1201862, “PubChem BioAssay data set” (2004)
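Step 1: Grow cells in 96-well plates. Step 2: Expose to compound for 48 hours at 5 concentrations. Step 3: Interpolate endpoints linearly; if unreached, use highest concentration. The concentration for 50% growth inhibition is given as GI50.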 Calls of active or inactive are those of the source. Rule as the data show it: active = GI50 up to about 1.1 µM and inactive = higher.

Assays:
Assay in all cases: inhibition of tumour cell growth, NCI panel, 48 h
[1] = test system: A498
[2] = test system: A549
[3] = test system: ACHN
[4] = test system: CAKI-1
[5] = test system: EKVX
[6] = test system: HT-29
[7] = test system: KM12
[8] = test system: M19-MEL
[9] = test system: OVCAR-4
[10] = test system: SF-268
[11] = test system: SK-MEL-2
[12] = test system: SR
[13] = test system: SW-620
[14] = test system: CCRF-CEM
[15] = test system: HOP-92

SMILES | GI50 [1] | GI50 [2] | GI50 [3] | GI50 [4] | GI50 [5] | GI50 [6] | GI50 [7] | GI50 [8] | GI50 [9] | GI50 [10] | GI50 [11] | GI50 [12] | GI50 [13] | GI50 [14] | GI50 [15]
Cc1cn(C2CC(CCCO)C(CO)O2)c(=O)[nH]c1=O (stereo not drawn) | > 100 µM (inactive) | > 100 µM (inactive) | > 100 µM (inactive) | > 100 µM (inactive) | > 100 µM (inactive) | > 100 µM (inactive) | > 100 µM (inactive) | > 100 µM (inactive) | > 100 µM (inactive) | > 100 µM (inactive) | > 100 µM (inactive) | > 100 µM (inactive) | > 100 µM (inactive) |  | 
CC(C)C(CCOS(=O)(=O)O)CCC(C)[C@H]1[C@@H](O)C(O)C2[C@]3(O)C[C@@H](O)C4(O)C[C@@H](O)CC[C@]4(C)C3CC[C@@]21C (stereo partly drawn) |  | > 100 µM (inactive) | > 100 µM (inactive) | > 100 µM (inactive) | > 100 µM (inactive) | > 100 µM (inactive) | > 100 µM (inactive) | > 100 µM (inactive) | > 100 µM (inactive) | > 100 µM (inactive) | > 100 µM (inactive) | > 100 µM (inactive) | > 100 µM (inactive) | > 100 µM (inactive) | > 100 µM (inactive)
COc1ccc(CNc2cnc3cc(N)ccc3n2)cc1OC |  | > 100 µM (inactive) | > 100 µM (inactive) | > 100 µM (inactive) | > 100 µM (inactive) | > 100 µM (inactive) | > 100 µM (inactive) | > 100 µM (inactive) | > 100 µM (inactive) | > 100 µM (inactive) | > 100 µM (inactive) | > 100 µM (inactive) | > 100 µM (inactive) | > 100 µM (inactive) | 
FC(F)(F)c1ccc2nc(NCc3ccccc3)c(-c3ccccc3)nc2c1 |  | 26.9 µM (inactive) | 33.2 µM (inactive) |  | 62.2 µM (inactive) | 36 µM (inactive) |  | 32.1 µM (inactive) |  | 48.1 µM (inactive) | 32.9 µM (inactive) | 24.9 µM (inactive) | 49.4 µM (inactive) | 37.2 µM (inactive) | 0.521 µM (active)
COc1cc2c3c(c1OC)C(=O)C=C3N(S(=O)(=O)c1ccc(C)cc1)CC2 | > 100 µM (inactive) | > 100 µM (inactive) | 75.9 µM (inactive) | 52.6 µM (inactive) | > 100 µM (inactive) | > 100 µM (inactive) | > 100 µM (inactive) | > 100 µM (inactive) | 65.8 µM (inactive) | > 100 µM (inactive) | > 100 µM (inactive) | > 100 µM (inactive) | > 100 µM (inactive) | > 100 µM (inactive) | > 100 µM (inactive)
O=C(O)/C=C/n1c2ccccc2c(=O)c2ccccc21 | > 100 µM (inactive) | > 100 µM (inactive) | > 100 µM (inactive) | > 100 µM (inactive) | > 100 µM (inactive) | > 100 µM (inactive) | > 100 µM (inactive) | > 100 µM (inactive) | > 100 µM (inactive) | > 100 µM (inactive) | > 100 µM (inactive) | > 100 µM (inactive) | > 100 µM (inactive) | > 100 µM (inactive) | 
CCOC(=O)C1C(=O)C(=O)N2CCc3c([nH]c4ccccc34)C12 (stereo not drawn) | > 100 µM (inactive) | > 100 µM (inactive) |  | > 100 µM (inactive) | > 100 µM (inactive) | > 100 µM (inactive) | > 100 µM (inactive) | > 100 µM (inactive) | > 100 µM (inactive) | > 100 µM (inactive) | > 100 µM (inactive) | > 100 µM (inactive) | > 100 µM (inactive) | > 100 µM (inactive) | > 100 µM (inactive)
Cc1ccc(S(=O)(=O)ON/N=C2/C3OC3[C@@H]3CCCC[C@H]23)cc1 (stereo partly drawn) |  | > 100 µM (inactive) | > 100 µM (inactive) | > 100 µM (inactive) | > 100 µM (inactive) | > 100 µM (inactive) | > 100 µM (inactive) | > 100 µM (inactive) | > 100 µM (inactive) | > 100 µM (inactive) | > 100 µM (inactive) | > 100 µM (inactive) | > 100 µM (inactive) | > 100 µM (inactive) | > 100 µM (inactive)
OC1CC(O)O[C@H](c2ccccc2)C1 (stereo partly drawn) | > 100 µM (inactive) | > 100 µM (inactive) | > 100 µM (inactive) | > 100 µM (inactive) | > 100 µM (inactive) | > 100 µM (inactive) | > 100 µM (inactive) | > 100 µM (inactive) | > 100 µM (inactive) | > 100 µM (inactive) |  | > 100 µM (inactive) | > 100 µM (inactive) | > 100 µM (inactive) | > 100 µM (inactive)
C#CCSc1nc(N)c2ncn(C3OC(COP(=O)(O)O)C(O)C3O)c2n1 (stereo not drawn) | > 239 µM (inactive) | > 239 µM (inactive) | > 239 µM (inactive) | > 239 µM (inactive) | > 239 µM (inactive) | > 239 µM (inactive) | > 239 µM (inactive) | > 239 µM (inactive) | > 239 µM (inactive) | > 239 µM (inactive) | > 239 µM (inactive) | > 239 µM (inactive) | > 239 µM (inactive) | > 239 µM (inactive) | > 239 µM (inactive)
CCOC(=O)C1=C(O)C(=O)c2cc(OC)ccc2C1=O | > 100 µM (inactive) | 96.2 µM (inactive) | > 100 µM (inactive) | > 100 µM (inactive) | > 100 µM (inactive) | > 100 µM (inactive) | > 100 µM (inactive) | 20.7 µM (inactive) | > 100 µM (inactive) | > 100 µM (inactive) | > 100 µM (inactive) | > 100 µM (inactive) | > 100 µM (inactive) | > 100 µM (inactive) | > 100 µM (inactive)
C[C@H]1[C@H](C)CC[C@]2(C(=O)O)CCC3(COC(=O)/C=C/c4ccc(O)cc4)C(=CCC4[C@@]5(C)CC[C@H](O)C(C)(C)C5CC[C@]43C)[C@H]12 (stereo partly drawn) | 4.06 µM (inactive) | 2.61 µM (inactive) | 2.69 µM (inactive) | 2.85 µM (inactive) | 11 µM (inactive) | 6.12 µM (inactive) | 3.47 µM (inactive) | 22.3 µM (inactive) | 5.96 µM (inactive) | 4.67 µM (inactive) | 19.1 µM (inactive) | 3.91 µM (inactive) | 3.36 µM (inactive) | 3.84 µM (inactive) | 
N=c1oc2c(O)c(O)ccc2cc1C(N)=O | > 100 µM (inactive) | > 100 µM (inactive) | > 100 µM (inactive) | > 100 µM (inactive) | 47.2 µM (inactive) | > 100 µM (inactive) | > 100 µM (inactive) | 21.3 µM (inactive) | 17.5 µM (inactive) | 96.4 µM (inactive) | 48.2 µM (inactive) |  | 32.1 µM (inactive) | 21.6 µM (inactive) | > 100 µM (inactive)
CN(C)CC/C(=N\Nc1c(F)c(F)c(F)c(F)c1F)c1ccccc1 | 74.5 µM (inactive) | 31.6 µM (inactive) | 30.9 µM (inactive) |  | > 100 µM (inactive) | 35.8 µM (inactive) | 48.5 µM (inactive) | 70.1 µM (inactive) | 16.9 µM (inactive) | 90.4 µM (inactive) | 32.7 µM (inactive) | 17.6 µM (inactive) | 74.8 µM (inactive) | 21.2 µM (inactive) | 
